These results are taken from US9474765B2, “Composition for lipolysis, containing phosphatidylcholine, and preparation method therefor” (AMI Pharm Co., Ltd., priority 2013, dated 2016).

For one data set, the system named is Prostaglandin E2 (PGE2). Nature of the data set: PGE2 Assay on hind feet tissue samples. Type of data set: in vivo, mice. Particulars: FIG. 7. How it is done: Prostaglandin E2 (PGE2) in the hind feet tissue samples of test animals in phosphatidylcholine (PC)-containing injection-administered test groups and sodium deoxycholate (DC)-administered group in various concentrations (PC 2.5%, PC 5%, DC 2.5%, PC 5%+DC 2.5%) was measured with PGE2 Assay (R&D System Inc., Minneapolis, USA). During cultivation, PGE2s in the hind feet tissue samples bound competitively with horse radish peroxidase (HRP)-labeled PGE2 to their mouse monoclonal antibodies. Unbound materials were removed by using washing buffer, while substrate solution was added to each well and left at room temperature with sunlight blocked. Then, stop solution was added, followed by measuring absorption value at 450 nm.

Data set [1] concerns Sprague-Dawley rats. Nature of the data set: Measuring the thickness of the soles of the hind feet after injection (edema, erythema). In kind it is in vivo. The procedure: 0.1 ml of the injectable compositions of the above Table 1, Lipobean (purchased from Ami Pharm Co., Ltd.; positive control) or 2.5% sodium deoxycholate (hereinafter, “DC”; saline solution was used as a solvent) were injected into the soles of the hind feet of 6 week-old, male Sprague-Dawley rats (weight: 170-200 g), respectively. The thickness of the soles was measured by using calipers at 1, 2, 3, and 4 hours after injection, while test performers were not aware of the order or the purpose of tests (i.e. blind study).

A further data set has as its system Albino C57BL/6 mice. The data set can be described thus: Determination of tissue necrosis through visual inspection after subcutaneous abdominal injection. The note with it: 8 days after administration; for Tissue necrosis at the injected area (visual inspection): 0.2 ml s.c. into abdomen of obese mice, FIG. 8. Type of data set: in vivo. The procedure: (§1) Albino C57BL/6 mice (4 weeks old) were fed with high fat diet (Research diet, 60% kcal lipid) to induce a high degree of obesity. Then, after 24 and 48 hours, 0.2 ml of saline solution (negative control group), injection compositions of Table 1, Lipobean, 2.5% DC were injected subcutaneously into the abdomen of the mice, respectively. Eight (8) days after the administration was completed, the mice were sacrificed.
Visual inspection was conducted on the subcutaneously injected areas of the sacrificed mice.

The next data set relates to adipocytes. Nature of the data set: Observation of adipocytes in abdominal subcutaneous fats (H&E, optical microscope). In kind it is in vivo, Albino C57BL/6 mice. The note with it: 0.2 ml s.c. into abdomen of obese mice, FIG. 9. The procedure:
as §1
The abdomen of the sacrificed mice was incised, followed by rapid extraction of subcutaneous fats and their fixation in 4% formaldehyde solution. After fixation, washing & dehydrating were conducted and treated with paraffin solution to prepare paraffin blocks. Then, those paraffin blocks were thin-sliced in the thickness of 4 μm which were then dyed with hematoxylin & eosin for an optical microscopic observation.
The size of adipocytes in the saline control group and the PC injection-administered group were measured.

For data set [2], the system named is Myeloperoxidase (MPO) activity. Nature of the data set: MPO Activity Colorimetric Assay on hind feet tissue samples. Type of data set: in vivo, mice. The note with it: FIG. 4; comparison of groups. The procedure:
Myeloperoxidase (MPO) activity was measured by using MPO Activity Colorimetric Assay Kit (BioVision, USA). The tissue samples of the hind feet of test animals in phosphatidylcholine (PC)-containing injection-administered test groups and sodium deoxycholate (DC)-administered group in various concentrations (PC 2.5%, PC 5%, DC 2.5%, PC 5%+DC 2.5%) were mixed in 4 times MPO assay buffer and centrifuged at 12,000 rpm for 10 minutes, followed by diluting each tissue sample with 25 μl of MPO assay buffer, respectively. The diluted samples were placed into standard, background sample of 96-well plate, while dividing reaction mix and background into their corresponding wells and cultivating at 25° C. for 120 minutes. Then, stop mix was added and left for 10 minutes. Subsequently, TNB reagent was added to equalize the total amount of each well to 150 μl, followed by sun blocking with aluminum foils and 10 minutes later measuring absorption value at 412 nm.

In data set [3] the test system is Sprague-Dawley rats. The data set can be described thus: Histological test of the soles (hematoxylin eosin). In kind it is in vivo. Particulars: 4 hours after administration, FIG. 3. The text has this: Four (4) hours after the above described administration, rats were sacrificed of which soles were removed and their skins were incised and fixated in 10% formalin solution. Then, they were dyed in hematoxylin eosin solution to observe their morphological changes.

Take sodium deoxycholate [DC 2.5%]: in the data set on Prostaglandin E2 (PGE2), the “Level of PGE2 relative to phosphatidylcholine (PC)-administered test groups” value is not below 2 times. In addition, the “Measurement of the thickness of the feet” value came to 0.324 in the data set with Sprague-Dawley rats [1] (0 h, 0.1 ml injected into soles of hind feet, calipers); 0.720 with Sprague-Dawley rats [1] (1 h after injection, 0.1 ml into soles of hind feet); 0.706 in the data set on Sprague-Dawley rats [1] (2 h after injection, 0.1 ml into soles of hind feet); 0.682 in the data set on Sprague-Dawley rats [1] (3 h after injection, 0.1 ml into soles of hind feet); 0.625 in the data set with Sprague-Dawley rats [1] (4 h after injection, 0.1 ml into soles of hind feet). For the same substance, the “Tissue necrosis at the injected area (visual inspection)” value in the data set on Albino C57BL/6 mice (listed as 2.5% DC) was “severe necrosis with perforation in the skin”; in the data set on Albino C57BL/6 mice (listed as DC) it was “severe tissue necrosis with perforation and fibrosis”. Besides, the “Fibrosis (autopsy)” value in the data set with Albino C57BL/6 mice (0.2 ml s.c. into abdomen) is reported as “fibrosis was spread to the surrounding tissues”. For the same substance, in the data set with adipocytes, the “Inflammation in abdominal subcutaneous fat (histology)” value is “greater degree of inflammation than other groups”. Also, the “Lipolysis in abdominal subcutaneous fat (histology)” value in the data set on adipocytes is “Almost no lipolysis effect”. Further, in data set [2], the “MPO activity in hind feet tissue” value is “overall higher MPO activity”. The “Edema and neutrophils in sole tissue (histology)” value with Sprague-Dawley rats [3] was “both edema and neutrophils”.
